Source: patent US5180711A, “Combined treatment with GnRH antagonist and GnRH to control gonadotropin levels in mammals” (Applied Research Systems ARS Holding N.V., priority 1990, dated 1993)
Where a SMILES comes first, the peptide text is derived from it. [ ]: non-standard residue; d: D form. The star is where a group is joined. dPhe(4-Cl) = N[C@H](Cc1ccc(Cl)cc1)C(=O)O; d2Nal = N[C@H](Cc1ccc2ccccc2c1)C(=O)O; Lys(iPr) = CC(C)NCCCC[C@H](N)C(=O)O; d3Pal = N[C@H](Cc1cccnc1)C(=O)O; Nicotinoyl = O=C(c1cccnc1)*

Legend:
[1] = Antide concentrations in daily blood samples (Example 2); type: in vivo, cynomolgus monkeys; details: regimen A: four daily injections of 10 mg/kg sc; test period >40 days
Procedure: (§1) Normally cycling cynomolgus monkeys were studied in one of two regimens. Regimen A comprised a series of initial large loading doses of Antide (10 mg/kg, sc), with no further Antide administration. […] In each regimen GnRH replacement was initiated 4 days after the first Antide injection at a rate of 5 μg/pulse, with one 1 min pulse/hour. The amplitude was subsequently raised to 10 μg/pulse after approximately 21 days. Daily blood samples were drawn for later determination of estradiol, progesterone and Antide concentrations.

[2] = tested on: tonic gonadotropin (FSH/LH) levels; details: ovariectomized monkeys treated with Antide; cited from earlier work
[3] = tested on: ovulation; estradiol and progesterone concentrations; test: Ovulation induction by pulsatile GnRH replacement during Antide suppression of endogenous cycles (Example 2); type: in vivo, cynomolgus monkeys
Procedure: A second experiment was performed to establish that pulsatile GnRH replacement therapy would induce ovulation in the face of antagonist-induced suppression of endogenous cycles.
as §1

[4] = tested on: endogenous gonadotropin secretion (LH, FSH); test: Inhibition of endogenous gonadotropin secretion by Antide and response to pulsatile GnRH replacement in ovariectomized monkeys (Example 1); type: in vivo, cynomolgus monkeys; details: Antide-suppressed monkeys; GnRH 5 μg/pulse, 1 pulse/hour, from day 17; day after initiation
Procedure: Three long-term ovariectomized cynomolgus monkeys fitted with indwelling jugular vein canulae were utilized for this study. Daily blood samples were drawn under ketamine-induced anesthesia (10 mg/kg, I.M.), for 90 days. On study days 11-16 Antide (3 mg/kg, in propylene/glycol:water, 1:1) was administered via subcutaneous injection. GnRH replacement therapy (5 μg/pulse, 1 pulse/hour given over 1 min, via a Pulsamat infusion pump) was initiated on day 17 and continued for one week then withheld for one week, then reinitiated for one week in a 7 day on, 7 day off regimen for a total of four exposures.

Compound | concentration of Antide, always remaining above, throughout test period [1] | gonadotropin response to a large i.v. bolus of GnRH [2] | E2 response, ovulation and luteal P4 ([3]; regimen A, GnRH restarted at 10 μg/pulse) | E2 response to initial pulsatile GnRH replacement ([3]; regimen B, GnRH 5 μg/pulse) | E2 response, ovulation and luteal P4 ([3]; regimen B, GnRH increased to 10 μg/pulse) | gonadotropin concentrations during GnRH replacement therapy [4]
CC(=O)N[C@H](Cc1ccc2ccccc2c1)C(=O)N[C@H](Cc1ccc(Cl)cc1)C(=O)N[C@H](Cc1cccnc1)C(=O)N[C@@H](CO)C(=O)N[C@@H](CCCCNC(=O)c1cccnc1)C(=O)N[C@H](CCCCNC(=O)c1cccnc1)C(=O)N[C@@H](CC(C)C)C(=O)N[C@@H](CCCCNC(C)C)C(=O)N1CCC[C@H]1C(=O)N[C@H](C)C(N)=O [Antide, N--Ac--D--2--Nal--D--pClPhe--D--3---Pal--Ser--NicLys--D--NicLys--Leu--ILys--Pro--D--Ala--NH2] (Ac-[d2Nal][dPhe(4-Cl)][d3Pal]SK(Nicotinoyl)[dK](Nicotinoyl)L[Lys(iPr)]P[dA]-NH2) | above 15 ng/ml |  |  |  |  | 
gonadotropin releasing hormone (QHWSYGLRPG; Gonadoliberin-1; UniProt P01148 24-33, looked up) [GnRH] |  | transient increase in gonadotropin levels which subsequently fell back to the inhibited state | rapid and sustained elevation of E2 concentrations culminating in ovulation and normal luteal phase P4 (progesterone) concentrations | elevations of E2 to those characteristic of the late follicular phase | rapid rise in E2 concentrations to normal preovulatory levels culminating in ovulation with subsequent normal luteal P4 production | greater than 100 ng/ml
